pIC50, pKi: −log10 of the molar value.
What was measured:
mu-opioid receptor [1] = molecular target: T1, mu-opioid receptor (Homo sapiens, UniProt P35372); assay: Competition binding assay (3H-DAMGO); settings: mu-opioid receptor expressing membranes, 0.5 nM 3H-DAMGO
Description: Competition Binding Assays
Mu-, kappa- or delta-opioid receptor expressing membranes (5-15 μg/well) were suspended in 50 mM Tris buffer pH 7.6 containing 5 mM MgCl2 and were incubated on 96-well plates with test compound or vehicle (1% DMSO) and either 0.5 nM ^3H-DAMGO, 0.8 nM ^3H—U-69,595 or 1.1 nM ^3H-DPDPE respectively in a total volume of 200 μL for 90 min at rt (22° C.). The contents of the wells were filtered and washed 5 times with chilled 50 mM Tris buffer pH 7.6 through H2O pre-soaked GF/B filters using a Perkin Elmer Filtermate. The filters were dried and upon application of scintillant the bound radioactive content for each well determined by scintillation counting in a Wallac TriLux Microbeta scintillation counter. Non-specific binding was determined in the presence of 2 μM Naloxone. IC50 values were determined by plotting log concentration test compound against specific binding and subsequent Ki values calculated.

mu-opioid receptor [2] = molecular target: T1, mu-opioid receptor; assay: GTPγS functional binding assay; format: biochemical; settings: mu-opioid receptor expressing membranes, agonist DAMGO 10 nM, 35S-GTPγS binding
Description: GTPγS Functional Binding Assays
Mu-, kappa- or delta-opioid receptor expressing membranes (5-20 μg/well) were suspended in 50 mM HEPES buffer pH 7.6 containing 3 mM MgCl2, 120 mM NaCl, 150 pM GTPγS, 10 μg/mL saponin and 3 μM GDP (μ-opioid receptor assay) or 5 μM GDP (κ- and δ-opioid receptor assay) and were pre-incubated on 96-well plates with test compound or vehicle (1% DMSO) in a total volume of 160 μL for 10 min at rt (22° C.). Specific agonists DAMGO (10 nM final concentration), U-50,488 (30 nM final concentration) or SNC-80 (10 nM final concentration) were added respectively and the plates pre-incubated for a further 15 min at rt (22° C.) ^35S-GTPγS at a final concentration in the assay of 150 pM was then added to provide a total volume per well of 200 μL and the plates incubated for 45 min at 30° C. The contents of the wells were filtered and washed 5 times with chilled 50 mM Tris buffer pH 7.6 through H2O pre-soaked GF/B filters using a Perkin Elmer Filtermate. The filters were dried and upon application of scintillant the bound radioactive content for each well determined by scintillation counting in a Wallac TriLux Microbeta scintillation counter. Non-specific binding was determined in the presence of 10 μM GTPγS. IC50 values were determined by plotting log concentration test compound against percentage increase over non-stimulated ^35S-GTPγS binding.

T1 sequence (P35372 whole entry, species assumed): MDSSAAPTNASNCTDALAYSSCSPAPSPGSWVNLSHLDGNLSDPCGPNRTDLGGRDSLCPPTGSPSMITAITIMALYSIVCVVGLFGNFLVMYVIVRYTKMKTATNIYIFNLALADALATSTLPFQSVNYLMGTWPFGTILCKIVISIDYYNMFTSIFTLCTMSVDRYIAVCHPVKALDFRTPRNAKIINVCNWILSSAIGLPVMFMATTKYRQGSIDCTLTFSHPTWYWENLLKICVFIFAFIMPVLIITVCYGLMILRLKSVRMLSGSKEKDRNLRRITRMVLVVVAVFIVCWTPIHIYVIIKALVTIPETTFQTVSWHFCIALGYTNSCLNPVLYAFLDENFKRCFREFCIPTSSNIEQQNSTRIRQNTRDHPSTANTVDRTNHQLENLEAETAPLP

- pKi (mu-opioid receptor [1]): > 7.00
- pIC50 (mu-opioid receptor [2]): > 7.00
SMILES: NC(=O)c1ccc(Oc2ccc(CNC3CCOCC3)c3ccccc23)nc1 [Example 16, 6-{4-[(Tetrahydropyran-4-ylamino)methyl]naphthalen-1-yloxy}nicotinamide]
